Results as given in patent publication US20260226048A1, “MULTI-CYCLIC IRAK AND FLT3 INHIBITING COMPOUNDS AND USES THEREOF” (CHILDREN'S HOSPITAL MEDICAL CENTER, priority 2023, published 2026).
Like-named read-outs stand apart in the source and are kept apart here.

Tests used:
Format in all cases: cell-based
IRAK4 = biological target: T1, IRAK4 (Homo sapiens, UniProt Q9NWZ3); test: Reaction Biology NanoBRET target engagement assay in HEK-293 cells, IRAK4; conditions: live HEK-293 cells transfected with Kinase-NanoLuc fusion, 1 hour
T1 sequence (Q9NWZ3 1-460): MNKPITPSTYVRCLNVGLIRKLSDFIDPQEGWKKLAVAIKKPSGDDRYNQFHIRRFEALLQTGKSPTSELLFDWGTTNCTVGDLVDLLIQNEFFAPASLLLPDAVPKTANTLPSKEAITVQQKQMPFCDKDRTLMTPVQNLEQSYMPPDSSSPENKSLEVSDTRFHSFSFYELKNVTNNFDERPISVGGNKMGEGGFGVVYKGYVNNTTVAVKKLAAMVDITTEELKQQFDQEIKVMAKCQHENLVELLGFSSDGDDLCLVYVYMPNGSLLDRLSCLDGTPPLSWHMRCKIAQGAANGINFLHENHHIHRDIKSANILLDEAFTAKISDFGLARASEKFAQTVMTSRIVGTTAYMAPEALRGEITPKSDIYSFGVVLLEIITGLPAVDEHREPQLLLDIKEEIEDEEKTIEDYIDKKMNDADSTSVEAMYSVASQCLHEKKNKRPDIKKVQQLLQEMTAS
Description: The NanoBRET assay measures kinase engagement in real time in the context of the intact cell. Unlike the previously described biochemical kinase assay methodology in Example 33, the NanoBRET assay measures the binding and activity characteristics under equilibrium conditions using full-length kinases in the presence of cellular concentrations of ATP in live, uncompromised cells. As such, the assay provides a more relevant assessment of kinase potency and selectivity that would be expected to be observed in the native cellular environment, where potency is often considerably lower than that observed in the isolated biochemical assays (Vasta, J. D. et al., (2018) Cell Chem. Biol. 25, 206-214). The assay uses a Kinase-NanoLuc® fusion vector expressing a kinase protein to which a luciferase tag has been added, a cell-permeant fluorescent NanoBRET™ tracer, a NanoLuc® substrate, and an extracellular NanoLuc® inhibitor. Upon expression of the luciferase-tagged kinase, cells will produce a strong BRET signal only in the presence of the NanoBRET™ tracer. The extracellular NanoLuc® inhibitor ensures that the BRET signal observed emanates only from live cells. Because the BRET signal has tight distance constraints, addition of the test compound will decrease the BRET signal if the compound competes with the NanoBRET™ tracer for binding to the kinase domain. Under the appropriate tracer conditions established by the manufacturer, quantitative intracellular affinity and relative potency can then be determined using Mass Action model equations.
HEK-293 cells were purchased from ATCC. FuGENEHD Transfection Reagent, Kinase-NanoLucfusion plasmids, Transfection Carrier DNA, NanoBRETTracers and dilution buffer, NanoBRETNano-Glo Substrate, Extracellular NanoLucInhibitor were obtained from Promega.
Assays were conducted following Promega assay protocol with some modifications. HEK-293 Cells were transiently transfected with Kinase-NanoLucFusion Vector DNA by FuGENEHD Transfection Reagent. Testing compounds were delivered into 384 well assay plate by Echo 550 (LabcyteInc, Sunnyvale, CA). Transfected cells were harvested and mixed with NanoBRETTracer Reagent and dispensed into 384 well plates and incubated at 37° C. in 5% C02 cell culture incubator for 1 hour. The NanoBRETNano-Glo Substrate plus Extracellular NanoLucInhibitor Solution were added into the wells of the assay plate and incubated for 2-3 minutes at room temperature. The donor emission wavelength (460 nm) and acceptor emission wavelength (600 nm) were measured in the EnVisionplate reader. The BRET Ratios were calculated. BRET Ratio=[(Acceptor sample÷Donor sample)−(Acceptor no-tracer control÷Donor no-tracer control)]. The IC50 values of compounds were calculated with Prism GraphPad program.
• 1). Cultivate HEK-293 cells (70-80% confluence) appropriately prior to assay. Trypsinize and collect HEK-293 cells. • 2). Prepare lipid: DNA complexes as follows: • a. Prepare a 10 μg/ml solution of DNA in Opti-MEM without serum that consists of the following ratios of carrier DNA and DNA encoding NanoLuc® fusion. 9.0 μg/mL of Transfection Carrier DNA, 1.0 μg/mL of NanoLuc fusion vector DNA and 1 mL of Opti-MEM without phenol red. Mix thoroughly. • b. Add 30 μl of FuGENE HD Transfection Reagent into each milliliter of DNA mixture to form lipid: DNA complex. • c. Mix by inversion 10 times. • d. Incubate at ambient temperature for 20 minutes to allow complexes to form. • 3). In a sterile, conical tube, mix 1 part of lipid:DNA complex with 20 parts of HEK-293 cells in suspension. Mix gently by inversion 5 times. • 4). Dispense cells+lipid:DNA complex into a sterile tissue culture dish and incubate for 22-24 hours.
Each test compound is delivered from the compound source plate to the wells of 384-well white NBS plate by Echo 550.
3. Preparation of Cells with NanoBRET™ Tracer Reagent • 1). […]

[1] = tested on: NF-κB-inducible SEAP reporter in THP-1-Blue NF-κB cells; test: NF-kB SEAP reporter assay in THP-1-Blue NF-κB cells; conditions: 24 hours
How it was run: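 Cells (1×10^5/well) stimulated with Pam3CSK4 (1 ng/mL) or hIL1B (1 ng/mL), then after 10-20 min given 10-point 1:10 compound dilutions from 1 μM or 3 μM for 24 h at 37° C. Secreted SEAP in supernatant read with QUANTI-Blue (30-60 min, 37° C) at 620 nm.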

[2] = tested on: MOLM14-D835Y cells (FLT3-ITD (D835Y) mutant); test: Combination drug screening with venetoclax in MOLM14 (D835Y) cells (Cell Titre Glo, 10 × 10); parameters: Excess HSA (sum excess HSA score, combination with venetoclax): scale not given here; conditions: for Excess HSA (sum excess HSA score, combination with venetoclax): 10 × 10 dataset, Cell Titre Glo at 48 hours, optimal of 4 dose combinations, negative = synergy; for Concentration of a compound of the disclosure, or gilteritinib, needed to decrease the 62.5 nM Ven response to <10% in MOLM14(D835Y) cells: combination with 62.5 nM Venetoclax, Cell Titer Glo, 48 hours, response <10%
Method: These assays were performed using the Cell Titre Glo assay, measured at 48 hours.
A smaller concentration indicates higher potency to synergize with Venetoclax.

[3] = THP-1-Blue NF-κB cells stimulated with Pam3CSK4 (1 ng/mL), read-out: NF-κB Pam3SCK4 IC50
[4] = THP-1-Blue NF-κB cells stimulated with hIL1B (1 ng/mL), read-out: NF-κB IL1B IC50

Structure (SMILES) | IC50 (IRAK4) | IC50 [1, 3] | IC50 [1, 4] | Excess HSA (sum excess HSA score, combination with venetoclax) [2] | Concentration of a compound of the disclosure, or gilteritinib, needed to decrease the 62.5 nM Ven response to <10% in MOLM14(D835Y) cells [2]
CC(O)(c1ccc2ncc(-c3ccnc(N[C@@H]4CCCNC4)n3)n2c1)C(F)(F)F (single isomer, unassigned) [Compound 22a] | < 0.5 nM | – | – | – | –
CC(O)(c1ccc2ncc(-c3ccnc(N[C@@H]4CCCNC4)n3)n2c1)C(F)(F)F (single isomer, unassigned) [Compound 23a] | < 0.5 nM | 56 nM | 96 nM | – | –
CC(O)(c1ccc2ncc(-c3ccnc(N[C@H]4CNCC[C@@H]4F)n3)n2c1)C(F)(F)F (single isomer, unassigned) [Compound 25a] | 2 nM | 193 nM | 152 nM | −1507 | 25 nM
CC(O)(c1ccc2ncc(-c3cncc(N[C@@H]4CCCNC4)n3)n2c1)C(F)(F)F (single isomer, unassigned) [Compound 28a] | < 0.5 nM | 96 nM | 149 nM | – | –
CC(O)(c1ccc2ncc(-c3cncc(N[C@H]4CNCC[C@@H]4F)n3)n2c1)C(F)(F)F (single isomer, unassigned) [Compound 31a] | < 0.5 nM | 138 nM | 100 nM | – | –
COc1cc2ncc(-c3nc(N[C@H]4CNCC[C@@H]4F)ncc3F)n2nc1C1CC1 [Compound 1a, 4-(6-cyclopropyl-7-methoxyimidazo[1,2-b]pyridazin-3-yl)-5-fluoro-N-((3S,4S)-4-fluoropiperidin-3-yl)pyrimidin-2-amine] | < 0.5 nM | 17 nM | 22 nM | −1505 | 1.6 nM
FC(F)COc1cc2ncc(-c3ccnc(N[C@H]4CNCC[C@@H]4F)n3)n2nc1C1CC1 [Compound 4a, 4-(6-cyclopropyl-7-(2,2-difluoroethoxy)imidazo[1,2-b]pyridazin-3-yl)-N-((3 S,4S)-4-fluoropiperidin-3-yl)pyrimidin-2-amine] | 0.8 nM | 184 nM | 166 nM | −1769 | 6.3 nM
F[C@H]1CCNC[C@@H]1Nc1nccc(-c2cnc3cc(OC4CC4)c(C4CC4)nn23)n1 [Compound 12a, 4-(7-cyclopropoxy-6-cyclopropylimidazo[1,2-b]pyridazin-3-yl)-N-((3S,4S)-4-fluoropiperidin-3-yl)pyrimidin-2-amine] | < 0.5 nM | 382 nM | 220 nM | −1236 | 100 nM
COc1cc2ncc(-c3nc(N[C@H]4CNCC[C@@H]4F)ncc3F)n2nc1C(C)(C)O [Compound 45a, 2-(3-(5-fluoro-2-(((3S,4S)-4-fluoropiperidin-3-yl)amino)pyrimidin-4-yl)-7-methoxyimidazo[1,2-b]pyridazin-6-yl)propan-2-ol] | 3 nM | 204 nM | 351 nM | −2340 | 25 nM
CC(C)(O)c1ccc2ncc(-c3nc(N[C@H]4CNCC[C@@H]4F)ncc3F)n2c1 [Compound 46a, 2-(3-(5-fluoro-2-(((3S,4S)-4-fluoropiperidin-3-yl)amino)pyrimidin-4-yl)imidazo[1,2-a]pyridin-6-yl)propan-2-ol] | 4 nM | 103 nM | 112 nM | −1279 | 50 nM
CC(C)(O)c1ccc2ncc(-c3nc(N[C@@H]4CCCNC4)ncc3F)n2c1 [Compound 48a, (R)-2-(3-(5-fluoro-2-(piperidin-3-ylamino)pyrimidin-4-yl)imidazo[1,2-a]pyridin-6-yl)propan-2-ol] | 5 nM | 56 nM | 96 nM | −1694 | 156.3 nM
COc1cc2ncc(-c3nc(N[C@H]4CNCC[C@@H]4F)ncc3F)n2nc1C1CC(F)(F)C1 [Compound 49a, 4-(6-(3,3-difluorocyclobutyl)-7-methoxyimidazo[1,2-b]pyridazin-3-yl)-5-fluoro-N-((3S,4S)-4-fluoropiperidin-3-yl)pyrimidin-2-amine] | < 0.5 nM | 79 nM | 89 nM | −1960 | 6.3 nM
COc1cc2ncc(-c3ccnc(N[C@H]4CNCC[C@@H]4F)n3)n2nc1C1CCC1 [Compound 79a, 4-(6-cyclobutyl-7-methoxyimidazo[1,2-b]pyridazin-3-yl)-N-((3S,4S)-4-fluoropiperidin-3-yl)pyrimidin-2-amine] | < 0.5 nM | 340 nM | 271 nM | −1180 | 25 nM
COc1cc2ncc(-c3nc(N[C@H]4CNC[C@@H]4F)ncc3F)n2nc1N1CCCS1(=O)=O [Compound 111a, 2-(3-(5-fluoro-2-(((3S,4S)-4-fluoropyrrolidin-3-yl)amino)pyrimidin-4-yl)-7-methoxyimidazo[1,2-b]pyridazin-6-yl)isothiazolidine 1,1-dioxide] | 34 nM | – | – | – | –
COc1cc2ncc(-c3nc(N[C@H]4CNCC[C@@H]4F)ncc3F)n2nc1N1CCCS1(=O)=O [Compound 112a, 2-(3-(5-fluoro-2-(((3S,4S)-4-fluoropiperidin-3-yl)amino)pyrimidin-4-yl)-7-methoxyimidazo[1,2-b]pyridazin-6-yl)isothiazolidine 1,1-dioxide] | < 0.5 nM | 235 nM | 355 nM | – | –
